{"source": "paper PMC4494773", "about": "“Design, synthesis, antiviral and cytotoxic evaluation of novel acyclic phosphonate nucleotide analogues with a 5,6-dihydro-1H-[1,2,3]triazolo[4,5-d]pyridazine-4,7-dione system” (Monatshefte Fur Chemie, 2014)", "origin": "cited, not measured here", "key": {"HIV-1": {"tested_on": "HIV-1", "set-up": "method as in PMID 12901908"}, "viral helicase from HCV": {"tested_on": "viral helicase from HCV", "set-up": "method as in PMID 11959550"}, "[1]": {"tested_on": "viral helicase from West Nile Virus (WNV)", "set-up": "method as in PMID 11959550"}}}
{"smiles": "NC(=O)c1nnn(C2CC(CO)CC2O)c1N", "note": "(stereo not drawn) [compound 1]", "values": [{"measurement": "antiviral activity against HIV-1", "setting": "HIV-1", "value": "displayed antiviral activity"}]}
{"smiles": "NC(=O)c1cn(C2CC(CCP(=O)(O)O)CC2O)nn1", "note": "(stereo not drawn) [compound 2]", "values": [{"measurement": "antiviral activity against HIV-1", "setting": "HIV-1", "value": "displayed antiviral activity"}]}
{"smiles": "O=c1[nH][nH]c(=O)c2c1ncn2C1OC(CO)C(O)C1O", "note": "(stereo not drawn) [compound 5]", "values": [{"measurement": "antiviral activity by inhibition of a viral helicase", "setting": "viral helicase from HCV", "value": "exhibited antiviral activity by inhibition of a viral helicase"}, {"measurement": "antiviral activity by inhibition of a viral helicase", "setting": "[1]", "value": "exhibited antiviral activity by inhibition of a viral helicase"}]}
{"smiles": "COC1C(O)C(CO)OC1n1cnc2c(=O)[nH][nH]c(=O)c21", "note": "(stereo not drawn) [compound 6]", "values": [{"measurement": "antiviral activity by inhibition of a viral helicase", "setting": "viral helicase from HCV", "value": "exhibited antiviral activity by inhibition of a viral helicase"}, {"measurement": "antiviral activity by inhibition of a viral helicase", "setting": "[1]", "value": "exhibited antiviral activity by inhibition of a viral helicase"}]}
